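Five concentrations, 48 hours, 96-well plates. TGI is the concentration that stops growth completely.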
Key:
Experiment in all cases: inhibition of tumour cell growth, NCI panel, 48 h
SW-620 colon = tested on: SW-620 colon
CCRF-CEM leukemia = tested on: CCRF-CEM leukemia
A549 NSCLC = tested on: A549 NSCLC
HCT-15 colon = tested on: HCT-15 colon
OVCAR-3 ovarian = tested on: OVCAR-3 ovarian
PC-3 prostate = tested on: PC-3 prostate
LOX IMVI melanoma = tested on: LOX IMVI melanoma
MDA-N = tested on: MDA-N
NCI-H23 lung = tested on: NCI-H23 lung
DU-145 prostate = tested on: DU-145 prostate
COLO 205 colon = tested on: COLO 205 colon
U251 CNS = tested on: U251 CNS
HS 578T breast = tested on: HS 578T breast
M14 melanoma = tested on: M14 melanoma
UO-31 renal = tested on: UO-31 renal
ACHN renal = tested on: ACHN renal
NCI/ADR-RES ovarian = tested on: NCI/ADR-RES ovarian
NCI-H226 lung = tested on: NCI-H226 lung
SNB-75 CNS = tested on: SNB-75 CNS
HCT-116 colon = tested on: HCT-116 colon

Measured: TGI

CCOC(O)C(F)(F)F (stereo not given)
> 100 µM: SW-620 colon | CCRF-CEM leukemia | A549 NSCLC | HCT-15 colon | OVCAR-3 ovarian | PC-3 prostate | LOX IMVI melanoma | MDA-N | NCI-H23 lung | DU-145 prostate | COLO 205 colon | U251 CNS | HS 578T breast | M14 melanoma | UO-31 renal | ACHN renal | NCI/ADR-RES ovarian | NCI-H226 lung | SNB-75 CNS | HCT-116 colon
